Assay results taken from ChEMBL document CHEMBL1134013, “Synthesis and biological evaluation of benzo[b]naphthyridones, a series of new topical antibacterial agents” (2001).
Converted amounts (≈) assume the structure as drawn.

What was measured:
Staphylococcus hominis = experiment: Minimum inhibitory concentration against Quinolone sensitive Staphylococcus hominis IP8203 Strain.; format: functional
Staphylococcus aureus = experiment: Minimum inhibitory concentration against Quinolone Resistant Staphylococcus aureus LF11C128B Strain.; format: functional

SMILES	MIC (Staphylococcus hominis) [µg/mL]	MIC (Staphylococcus aureus) [µg/mL]
Cn1cc(C(=O)O)c(=O)c2cc3cc(F)c(N4CCCCCCC4)cc3nc21	1 (≈ 2.61 µM)	1 (≈ 2.61 µM)
CSCc1cccc(N2CCN(c3cc4nc5c(cc4cc3F)c(=O)c(C(=O)O)cn5C)CC2)c1	4 (≈ 8.12 µM)	4 (≈ 8.12 µM)
Cn1cc(C(=O)O)c(=O)c2cc3cc(F)c(N4CCN(Cc5ccc(F)cc5)CC4)cc3nc21	0.5 (≈ 1.08 µM)	1 (≈ 2.15 µM)
C/C(=C\C(=O)OCCCCCCCCC(=O)[O-])C[C@@H]1OC[C@H](C[C@@H]2O[C@H]2[C@@H](C)[C@H](C)O)[C@@H](O)[C@H]1O.C/C(=C\C(=O)OCCCCCCCCC(=O)[O-])C[C@@H]1OC[C@H](C[C@@H]2O[C@H]2[C@@H](C)[C@H](C)O)[C@@H](O)[C@H]1O.[Ca+2]	0.5	0.5
C[N+](C)(C)CCO.Cn1cc(C(=O)[O-])c(=O)c2cc3cc(F)c(N4CCN(c5ccc(F)cc5)CC4)cc3nc21	0.25	0.5
Cn1cc(C(=O)O)c(=O)c2cc3cc(F)c(NC4CCCCC4)cc3nc21	1 (≈ 2.71 µM)	1 (≈ 2.71 µM)
CCn1cc(C(=O)O)c(=O)c2cc(F)c(N3CCN(C)CC3)cc21 [PEFLOXACIN]	0.5 (≈ 1.5 µM)	
